What was measured:
Format in all cases: in vivo
[1] = tested on: mutant plant with heterozygous P165L substitution on ZmALS2; test: Herbicide resistance of ZmALS-P165 edited corn plant
Description: To establish the co-editing system in corn, acetolactate synthase site corresponding TaALS-P173 was targeted to test the herbicide resistance. It has been reported single edited allele on ZmALS2 could confer plants herbicide resistance (Svitashev et al, 2016). So the binary vector targeting ZmALS-P165 was transformed to immature embryos (ZmALS-P165 site is conserved in both ZmALS1 and ZmALS2). Three independent mutants were obtained from the regenerated plants and their genotypes are same.

[2] = tested on: wild-type plants; test: Nicosulfuron selection medium, wild-type rice plants; settings: 0.0065 PPM Nicosulfuron
Procedure: The pH-nCas9-PBE-OsALS-S1/S2 binary vector was transformed into Agrobacterium strain AGL1 by electroporation. Agrobacterium-mediated transformation, tissue culture and regeneration in rice cultivar Zhonghua 11 were performed according to Shan et al. (Shan, Q. et al. Targeted genome modification of crop plants using a CRISPR-Cas system. Nat. Biotechnol. 31, 686-688 (2013)). Hygromycin selection (50 μg/ml) was used during tissue culture. (This experiment is a proof of concept, so the plants were selected with hygromycin first, then by nicosulfuron. The objective was to first obtain transgenic plants and then screen for herbicide resistance). […] Four seedlings survived after 14 days. DNA was extracted from the four seedlings. The ALS gene was amplified by PCR, sequenced to determine the mutant genotype.

[3] = tested on: wild-type plants; test: Nicosulfuron selection medium, wild-type wheat plants
Description: 30 days later, twelve seedlings survived, and 9 of them had base mutations at the TaALS-S2 site. The efficiency of selecting the ALS-S2 site mutant plants using nicosulfuron selection medium was 75% (9/12).

SMILES | resistance of mutant corn plant to the herbicide [1] | survival of wild-type plants on selection medium [2] | survival of wild-type plants on selection medium [3]
COC(=O)c1ccc(CNS(C)(=O)=O)cc1S(=O)(=O)NC(=O)Nc1nc(OC)cc(OC)n1 [Mesosulfuron-methyl] | showed resistance |  | 
COc1cc(OC)nc(NC(=O)NS(=O)(=O)c2ncccc2C(=O)N(C)C)n1 [Nicosulfuron] |  | cannot survive | unable to survive

— patent US20210230616A1, “METHODS FOR ISOLATING CELLS WITHOUT THE USE OF TRANSGENIC MARKER SEQUENCES” (INSTITUTE OF GENETICS AND DEVELOPMENTAL BIOLOGY, CHINESE …, priority 2017, published 2021)
